According to US20070207093A1, “Hydrazone derivatives and uses thereof” (Linquagen Corp., priority 2005, published 2007):

What was measured:
Type in all cases: cell-based
[1] = test system: GPCR-mediated calcium activation step; assay: Calcium counterscreen (calcium sensitive dye, ATP stimulation); details: Homo sapiens, 10 μM compound, same HEK293 TRPM5 cells, Calcium3 dye, read-out: Calcium Counterscreen (percent inhibition)
Protocol: (§1) Two counterscreen assays were run on separate cell plates utilizing the same cells as described above. In the calcium counterscreen, the cells were loaded with a calcium sensitive dye (Calcium3 Dye, Part no. 8090, Molecular Devices Corp.) and stimulated by ATP to check for compounds that block the GPCR-mediated calcium activation step. In the KCl counterscreen, cells are stimulated with 10 mM KCl instead of ATP to check for compounds that inhibit the membrane potential response by virtue of being non-specific ion channel blockers.
(§2) Unless otherwise indicated, the data in the table below were determined using the three assays described above, providing percent inhibition data at 10 μM.

human TRPM5 ion channel = target: T1, human TRPM5 ion channel (Homo sapiens, UniProt Q9NZQ8); assay: TRPM5 FLIPR membrane potential screening assay (ATP stimulation); details: 10 μM compound; HEK293 cells stably expressing human TRPM5; 3 μM ATP stimulation; versus negative control wells; read-out: TRPM5 Activity (percent inhibition)
T1 construct: expressed in transfected cells
T1 sequence (Q9NZQ8 1-1165): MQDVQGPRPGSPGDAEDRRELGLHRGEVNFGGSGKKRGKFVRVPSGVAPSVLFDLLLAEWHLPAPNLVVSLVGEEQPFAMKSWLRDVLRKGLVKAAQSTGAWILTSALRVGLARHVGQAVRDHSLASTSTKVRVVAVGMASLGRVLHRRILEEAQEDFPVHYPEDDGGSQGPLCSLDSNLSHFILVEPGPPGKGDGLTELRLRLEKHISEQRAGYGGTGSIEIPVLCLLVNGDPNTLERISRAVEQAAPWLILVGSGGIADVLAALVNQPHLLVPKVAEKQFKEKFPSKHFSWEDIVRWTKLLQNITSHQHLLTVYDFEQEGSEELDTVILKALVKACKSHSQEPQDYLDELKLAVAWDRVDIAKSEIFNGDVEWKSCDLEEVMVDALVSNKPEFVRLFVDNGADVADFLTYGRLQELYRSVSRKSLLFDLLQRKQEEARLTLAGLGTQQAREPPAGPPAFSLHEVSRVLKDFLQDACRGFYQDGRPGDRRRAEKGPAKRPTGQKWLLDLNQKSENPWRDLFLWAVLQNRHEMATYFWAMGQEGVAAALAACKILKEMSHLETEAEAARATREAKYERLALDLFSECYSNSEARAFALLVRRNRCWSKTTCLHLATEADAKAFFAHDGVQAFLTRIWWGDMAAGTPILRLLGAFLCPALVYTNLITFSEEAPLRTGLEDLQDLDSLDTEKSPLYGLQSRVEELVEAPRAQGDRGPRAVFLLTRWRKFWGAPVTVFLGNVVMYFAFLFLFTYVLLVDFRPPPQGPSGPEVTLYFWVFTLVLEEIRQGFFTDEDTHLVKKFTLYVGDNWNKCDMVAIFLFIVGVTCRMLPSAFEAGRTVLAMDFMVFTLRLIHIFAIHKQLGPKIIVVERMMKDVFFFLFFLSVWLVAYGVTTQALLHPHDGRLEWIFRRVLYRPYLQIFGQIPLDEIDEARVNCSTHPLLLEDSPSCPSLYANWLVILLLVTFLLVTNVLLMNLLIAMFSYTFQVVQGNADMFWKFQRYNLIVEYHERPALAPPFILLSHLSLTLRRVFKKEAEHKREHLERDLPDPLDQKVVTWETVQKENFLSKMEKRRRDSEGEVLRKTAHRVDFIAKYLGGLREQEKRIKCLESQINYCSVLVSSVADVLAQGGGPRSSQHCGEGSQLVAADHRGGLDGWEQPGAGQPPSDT
Protocol: The activity of human TRPM5 ion channel was measured in live cells on a fluorescent imaging plate reader (FLIPR). The basis of the assay (shown in FIG. 1) is the calcium-dependent activation of the ion channel which occurs via by activation of a G-protein coupled receptor (GPCR). GPCR activation by an appropriate agonist causes a transient increase in […] Ca^2+ ion concentration which in turn causes the ion channel to open, letting in Na^+ ions. This influx causes a change in the membrane potential of the cell which can be monitored as a change in the fluorescent signal from voltage-dependent (membrane potential) fluorescent dyes.
For the screening assay, the human TRPM5 gene was cloned, put into HEK293 cells, and a stable, high expression clone was used for screening. Cells were grown in standard media at 37° C. The day before screening, the cells were removed from flasks and added to 384 well clear bottom plates (8K cells in 20 μL/well). On the assay day, 20 μL of membrane potential dye (Part No. R8123, Molecular Devices Corp.) was added to the cells and dye was allowed to be taken up, i.e., load, into the cells for 1 hr at 37° C. […] The assay was started by addition of 10 μL of solution from the compound plate into the cell plate. During this process, continuous fluorescent recordings were made simultaneously for all wells. After addition of the compound solution, the tips were automatically washed and a stimulation solution of 3 μM ATP (an agonist for an endogenous purinurgic GPCR, was added to all wells of the cell plate. The height of the response was calculated and percent inhibition values, versus negative control wells, was calculated for the test samples.
as §2

[2] = test system: membrane potential response (non-specific ion channel block); assay: KCl counterscreen (membrane potential dye, 10 mM KCl stimulation); details: Homo sapiens; 10 μM compound; same HEK293 TRPM5 cells; 10 mM KCl instead of ATP; read-out: KC1 Counterscreen (percent inhibition)
Protocol: as §1, §2

Row | inhibition at 10 µM (human TRPM5 ion channel) [%] | SMILES | inhibition at 10 µM [1] [%] | inhibition at 10 µM [2] [%]
1 | 87 | O=C(O)COc1ccc(Br)cc1/C=N/Nc1cccc2cccnc12 [Example 2, (E)-2-(4-Bromo-2-((2-(quinolin-8-yl)hydrazono)methyl)phenoxy)acetic acid] | -10 | 70
2 | 99 | COc1ccc(/C=N/NC(=O)C2CC2c2ccccc2)cc1OC (stereo not drawn) [Example 4, (E)-N′-(3,4-Dimethoxybenzylidene)-2-phenylcyclopropanecarbohydrazide] | -1 | -4
3 | 93 | CCCCCCCC(O)CCC(=O)N/N=C/c1ccc(OC)c(OC)c1 (stereo not drawn) [Example 6] | 0 | -15
4 | 76 | COc1ccc(/C=N/NC(=O)COc2cccc(C)c2)cc1OC [Example 8, (E)-N′-(3,4-Dimethoxybenzylidene)-2-(m-tolyloxy)acetohydrazide] | -3 | 7
5 | 80 | C=CCOc1ccc(/C=N/NC(=O)CSCc2cccc(Br)c2)cc1OC [Example 9, (E)-N′-(4-(Allyloxy)-3-methoxybenzylidene)-2-(3-bromobenzylthio)acetohydrazide] | 2 | 21

The next lines start with the compound.

Row | SMILES | inhibition at 10 µM (human TRPM5 ion channel) [%] | inhibition at 10 µM [1] [%] | inhibition at 10 µM [2] [%]
6 | COC(=O)c1ccc(/N=N/C(=N\Nc2nc3ccccc3s2)C(C)C)cc1 [Example 1, Methyl 4-((E)-((Z)-1-(2-(benzo[d]thiazol-2-yl)hydrazono) -2-methylpropyl)diazenyl)benzoate] | 60 | -11 | 20
7 | COc1ccc(/C=N/NC(=O)CC(CO)C2=CCCCC2)cc1 (stereo not drawn) [Example 5, (E)-3-Cyclohexenyl-4-hydroxy-N′-(4-methoxybenzylidene)butanehydrazide] | 96 | -7 | 29
8 | O=C(O)c1ccccc1N/N=C(\N=N\c1ccccc1)c1ccccc1 [Example 7, 2-((Z)-2-(Phenyl-((E)-phenyldiazenyl) -methylene)hydrazinyl)benzoic acid] | 83 | -17 | 81
9 | CC(C)c1ccc(/C=N/NC(=O)C2C3CCCCC32)cc1 (stereo not drawn) [Example 10, (E)-N′-(4-Isopropylbenzylidene)bicyclo[4.1.0.]heptane-7-carbohydrazide] | 78 | -38 | -11
10 | CN1/C(=C\C=N\Nc2ccc([N+](=O)[O-])cc2)C(C)(C)c2ccccc21 [Example 11, (Z)-1,3,3-Trimethyl-2-((E)-2-(2-(4-nitrophenyl)hydrazono)ethylidene)indoline] | 67 | 23 | 14
11 | CCN(CC)c1ccc(/C=N/NC(=O)C2CC2c2ccccc2)c(O)c1 (stereo not drawn) [Example 12, (E)-N′-(4-(Diethylamino)-2-hydroxybenzylidene) -2-phenylcyclopropanecarbohydrazide] | 48 | -35 | -7
12 | N#CC(C#N)=NNc1ccc(SC(F)(F)F)cc1 [Example 13, (4-(Trifluoromethylthio)penyl)carbonohydrazonoyldicyanide] | 78 | 2 | 65
13 | Cc1ccc2c(c1)/C(=N/NC(=O)/C(=C\c1ccccc1)NC(=O)c1ccccc1)C(=O)N2C [Example 14, N-((E)-3-((Z)-2-(1,5-Dimethyl-2-oxoindolin-3-ylidene)hydrazinyl)-3-oxo-1-phenylprop-1-en-2-yl)benzamide] | 78 | -29 | 40
14 | CCCCn1cc(/C=N\Nc2ccccc2C(=O)O)c2ccccc21 [Example 15, (Z)-2-(2-((1-Butyl-1H-indol-3-yl)methylene)hydrazinyl)benzoic acid] | 74 | 4 | 43
